In the NIST ThermoML archive (doi:10.1021/je0498208):
± gives the expanded uncertainty stated by the source.

Assays:
[1] = Liquid; for viscosity: 101 kPa; for mass density: 101.3 kPa
[2] = xn = mol fraction of the nth substance listed; conditions: Liquid, x2 = 0; for viscosity: 101 kPa; for mass density: 101.3 kPa

| SMILES | viscosity ([1]; 298.15 K) | viscosity ([1]; 303.15 K) | viscosity ([1]; 313.15 K) | viscosity ([1]; 323.15 K) | mass density ([1]; 323.15 K) | viscosity ([1]; 333.15 K) | mass density ([1]; 333.15 K) | viscosity ([1]; 343.15 K) | mass density ([1]; 343.15 K) | also measured |
| --- | --- | --- | --- | --- | --- | --- | --- | --- | --- | --- |
| O=CN1CCOCC1 [N-formylmorpholine] | 7.87 ± 0.22 mPa·s | 6.75 ± 0.2 mPa·s | 5.13 ± 0.15 mPa·s | 4.03 ± 0.12 mPa·s | 1124.82 ± 1.2 kg/m3 | 3.25 ± 0.1 mPa·s | 1116.11 ± 1.1 kg/m3 | 2.68 ± 0.08 mPa·s | 1107.39 ± 1.1 kg/m3 | mass density ([1]; 298.15 K): 1146.62 ± 1.2 kg/m3; mass density ([1]; 303.15 K): 1142.26 ± 1.2 kg/m3; mass density ([1]; 313.15 K): 1133.53 ± 1.2 kg/m3 |
| O [water] | 0.89 ± 0.027 mPa·s | 0.7976 ± 0.025 mPa·s | 0.6531 ± 0.02 mPa·s | 0.547 ± 0.017 mPa·s | 988.04 ± 0.13 kg/m3 | 0.466 ± 0.015 mPa·s | 983.12 ± 0.13 kg/m3 | 0.4049 ± 0.013 mPa·s | 977.77 ± 0.13 kg/m3 | – |
| O [water] + O=CN1CCOCC1 | – | – | – | – | – | – | – | – | – | viscosity ([2]; 298.15 K): 0.89 ± 0.027 mPa·s; viscosity ([2]; 303.15 K): 0.7976 ± 0.025 mPa·s; viscosity ([2]; 313.15 K): 0.6531 ± 0.02 mPa·s; viscosity ([2]; 323.15 K): 0.547 ± 0.017 mPa·s; mass density ([2]; 323.15 K): 988.04 ± 0.13 kg/m3; viscosity ([2]; 333.15 K): 0.466 ± 0.015 mPa·s; mass density ([2]; 333.15 K): 983.12 ± 0.13 kg/m3; viscosity ([2]; 343.15 K): 0.4049 ± 0.013 mPa·s; mass density ([2]; 343.15 K): 977.77 ± 0.13 kg/m3 |
